This passage reports IC50 results from US20220169654A1, “New Organic Compounds” (Servier Pharmaceuticals LLC, priority 2020, published 2022).

The target in one assay is T1, MAT2A homodimer (Homo sapiens, UniProt P31153).
T1 construct: inferred from Ni sepharose purification with imidazole elution; made in house; host or cells: Sf9 insect cells, baculovirus (Bac to Bac, pFASTBAC1)
As to the kind of experiment: MAT2A inhibition (biochemical, liberated phosphate, PiColorLock Gold). The settings on record: recombinant MAT2A homodimer; IC50 bin with Max Inh.; read-out: Enzyme Inhibition Bin. The procedure, abridged:
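Baculovirus/Sf9-expressed, Ni-purified MAT2A (4 μg/mL) preincubated with compound 60 min at 25 °C in Tris pH 8.0/KCl/MgCl2 buffer. Reaction started with 500 μM ATP and 400 μM L-methionine (substrate-mix concentrations), run 60 min at 25 °C. Phosphate measured colorimetrically against a phosphate standard curve to give IC50.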

Assay [1] deals with SAM in HCT116 human colon carcinoma cell line with MTAP gene deleted (MTAP −/−). As to the kind of experiment: Cellular assay of target engagement (SAM), LC-MS/MS, 72 hrs. In kind it is cell-based. The settings on record: HCT-116, IC50 bin with Max Inh., read-out: Cell 72 h SAM Inhibition (MTAP −/−). An outline of the steps: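 MTAP-deleted HCT116 cells plated 24 h, then given 10-point 3-fold dilutions for 72 hrs at 37° C. Intracellular SAM extracted in cold 80% methanol with 1M acetic acid and d3-SAM standard, quantified by LC-MS/MS (MRM m/z 399.2→250.1); IC50 derived.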

The subject of another assay is HCT116 MTAP−/−. As to the kind of experiment: Inhibition of cellular proliferation, 4 days, Cell Titer Glo, HCT116 MTAP−/−. In kind it is cell-based. The settings on record: Homo sapiens, HCT-116, 96 h, IC50 bin with Max Inh., read-out: 4 Day Relative Growth Inhibition (MTAP −/−). The procedure, abridged: (§1)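 Isogenic HCT116 pair differing only in MTAP status, plated 24 h before treatment with 10-point 3-fold dilutions; 4 days at 37° C./5% CO2. Cell Titer Glo luminescence, blank-subtracted and normalised to 0.2% DMSO control, gives percentage proliferation vs log molar concentration for IC50.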
A general note: In ATP-based viability assays light output follows the ATP content of the culture.

The test system of the next assay is HCT116 MTAP+/+. As to the kind of experiment: Inhibition of cellular proliferation, 4 days, Cell Titer Glo, HCT116 MTAP+/+. In kind it is cell-based. The settings on record: Homo sapiens, HCT-116, 96 h, IC50 bin with Max Inh., read-out: 4 Day Relative Growth Inhibition (MTAP +/+). The procedure, abridged:
as §1

T1 sequence (P31153 whole entry): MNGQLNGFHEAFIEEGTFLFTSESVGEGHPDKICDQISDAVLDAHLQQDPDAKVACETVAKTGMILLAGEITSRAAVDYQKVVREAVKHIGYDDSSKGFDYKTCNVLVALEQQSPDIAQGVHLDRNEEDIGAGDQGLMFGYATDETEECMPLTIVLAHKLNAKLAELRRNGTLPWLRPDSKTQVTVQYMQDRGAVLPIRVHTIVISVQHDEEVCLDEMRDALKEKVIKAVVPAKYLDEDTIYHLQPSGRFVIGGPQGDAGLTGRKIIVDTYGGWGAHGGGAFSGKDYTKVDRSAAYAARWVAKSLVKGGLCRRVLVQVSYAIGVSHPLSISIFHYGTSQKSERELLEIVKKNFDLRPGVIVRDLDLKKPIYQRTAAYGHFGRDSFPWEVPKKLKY

`Cc1nc2ccc(-n3nc4ccn(CC5CC5)c4c(-c4ccc(C5CC5)nc4)c3=O)cc2n1C` [Example 156, 5-(cyclopropylmethyl)-4-(6-cyclopropylpyridin-3-yl)-2-(1,2-dimethyl-1H-benzo[d]imidazol-6-yl)-2,5-dihydro-3H-pyrrolo[3,2-c]pyridazin-3-one]: the IC50 (on MAT2A homodimer; in assay [1]; in the assay on HCT116 MTAP−/−; with HCT116 MTAP+/+) was below 100 nM each time.
For the molecule `Cn1cc2cc(-n3nc4ccn(CC5CC5)c4c(-c4ccc(CO)nc4)c3=O)ccc2n1` [Example 157, 5-(cyclopropylmethyl)-4-(6-(hydroxymethyl)pyridin-3-yl)-2-(2-methyl-2H-indazol-5-yl)-2,5-dihydro-3H-pyrrolo[3,2-c]pyridazin-3-one], the IC50 on MAT2A homodimer is below 100 nM; in assay [1], below 100 nM; with HCT116 MTAP−/−, below 100 nM; with HCT116 MTAP+/+, 100 to 1000 nM.
Regarding `Cn1cc2cc(-n3nc4c(C#N)cn(CC5CC5)c4c(-c4ccc(CO)nc4)c3=O)ccc2n1` [Example 158, 5-(cyclopropylmethyl)-4-(6-(hydroxymethyl)pyridin-3-yl)-2-(2-methyl-2H-indazol-5-yl)-3-oxo-3,5-dihydro-2H-pyrrolo[3,2-c]pyridazine-7-carbonitrile], the IC50 is below 100 nM at MAT2A homodimer, 100 to 1000 nM in assay [1], 100 to 1000 nM with HCT116 MTAP−/− and above 1000 nM in the assay on HCT116 MTAP+/+.
With `Cn1cc2cc(-n3nc4c(C#N)cn(CC5CCC5)c4c(-c4ccc(C5CC5)nc4)c3=O)ccc2n1` [Example 159, 5-(cyclobutylmethyl)-4-(6-cyclopropylpyridin-3-yl)-2-(2-methyl-2H-indazol-5-yl)-3-oxo-3,5-dihydro-2H-pyrrolo[3,2-c]pyridazine-7-carbonitrile], the IC50 at MAT2A homodimer was below 100 nM; in assay [1] it was below 100 nM; with HCT116 MTAP−/− it was 100 to 1000 nM; with HCT116 MTAP+/+, above 1000 nM.
Turning to `N#Cc1cn(CC2CC2)c2c(-c3ccc(C4CC4)nc3)c(=O)n(-c3ccc4nn(CC5CC5)cc4c3)nc12` [Example 160, 5-(cyclopropylmethyl)-2-(2-(cyclopropylmethyl)-2H-indazol-5-yl)-4-(6-cyclopropylpyridin-3-yl)-3-oxo-3,5-dihydro-2H-pyrrolo[3,2-c]pyridazine-7-carbonitrile], the IC50 on MAT2A homodimer was below 100 nM; in assay [1], below 100 nM; in the assay with HCT116 MTAP−/−, below 100 nM; in the assay with HCT116 MTAP+/+ it was 100 to 1000 nM.
For the molecule `[2H]C([2H])([2H])Oc1ccc(-c2c(=O)n(-c3ccc4nn(C)cc4c3)nc3c(C#N)cn(CC4CC4)c23)cc1` [Example 161, 5-(cyclopropylmethyl)-4-(4-(methoxy-d3)phenyl)-2-(2-methyl-2H-indazol-5-yl)-3-oxo-3,5-dihydro-2H-pyrrolo[3,2-c]pyridazine-7-carbonitrile], the IC50 was below 100 nM on MAT2A homodimer, below 100 nM in assay [1], below 100 nM in the assay with HCT116 MTAP−/− and above 1000 nM in the assay with HCT116 MTAP+/+.
Turning to `CNC(=O)c1cn(CC2CC2)c2c(-c3ccc(C4CC4)nc3)c(=O)n(-c3ccc4nn(C)cc4c3)nc12` [Example 162, 5-(cyclopropylmethyl)-4-(6-cyclopropylpyridin-3-yl)-N-methyl-2-(2-methyl-2H-indazol-5-yl)-3-oxo-2H,3H,5H-pyrrolopyridazine-7-carboxamide], the IC50 was below 100 nM on MAT2A homodimer, below 100 nM in assay [1], below 100 nM in the assay on HCT116 MTAP−/− and 100 to 1000 nM in the assay with HCT116 MTAP+/+.
`Cn1cc2cc(-n3nc4c(C(=O)O)cn(CC5CC5)c4c(-c4ccc(C5CC5)nc4)c3=O)ccc2n1` [Example 163, 5-(cyclopropylmethyl)-4-(6-cyclopropylpyridin-3-yl)-2-(2-methyl-2H-indazol-5-yl)-3-oxo-3,5-dihydro-2H-pyrrolo[3,2-c]pyridazine-7-carboxylic acid]: the IC50 was below 1000 nM at MAT2A homodimer, above 1000 nM in assay [1], 100 to 1000 nM in the assay on HCT116 MTAP−/− and above 1000 nM in the assay with HCT116 MTAP+/+.
As to `Cn1cc2cc(-n3nc4c(C(N)=O)cn(CC5CC5)c4c(-c4ccc(C5CC5)nc4)c3=O)ccc2n1` [Example 165, 5-(cyclopropylmethyl)-4-(6-cyclopropylpyridin-3-yl)-2-(2-methyl-2H-indazol-5-yl)-3-oxo-3,5-dihydro-2H-pyrrolo[3,2-c]pyridazine-7-carboxamide], the IC50 on MAT2A homodimer is below 100 nM; in assay [1], below 100 nM; in the assay with HCT116 MTAP−/− it was below 100 nM; in the assay with HCT116 MTAP+/+, 100 to 1000 nM.
For the molecule `Cn1cc2cc(-n3nc4c(C(N)=O)cn(CC5CC5)c4c(-c4ccc(C5CC5)cc4)c3=O)ccc2n1` [Example 166, 5-(cyclopropylmethyl)-4-(4-cyclopropylphenyl)-2-(2-methyl-2H-indazol-5-yl)-3-oxo-3,5-dihydro-2H-pyrrolo[3,2-c]pyridazine-7-carboxamide], the IC50 on MAT2A homodimer is below 100 nM; in assay [1], below 100 nM; with HCT116 MTAP−/− it was below 100 nM; in the assay with HCT116 MTAP+/+ it was above 1000 nM.
In the case of `CNC(=O)c1cn(CC2CC2)c2c(-c3ccc(C4CC4)cc3)c(=O)n(-c3ccc4nn(C)cc4c3)nc12` [Example 167, 5-(cyclopropylmethyl)-4-(4-cyclopropylphenyl)-N-methyl-2-(2-methyl-2H-indazol-5-yl)-3-oxo-3,5-dihydro-2H-pyrrolo[3,2-c]pyridazine-7-carboxamide], the IC50 (on MAT2A homodimer; in assay [1]; in the assay with HCT116 MTAP−/−; in the assay on HCT116 MTAP+/+) was below 100 nM throughout.
For `Cn1cc2cc(-n3nc4c(C(N)=O)cn(CC5CC5)c4c(-c4ccc(OC(F)F)cc4)c3=O)ccc2n1` [Example 168, 5-(cyclopropylmethyl)-4-(4-(difluoromethoxy)phenyl)-2-(2-methyl-2H-indazol-5-yl)-3-oxo-3,5-dihydro-2H-pyrrolo[3,2-c]pyridazine-7-carboxamide], the IC50 was below 100 nM at MAT2A homodimer, below 100 nM in assay [1], below 100 nM in the assay with HCT116 MTAP−/− and above 1000 nM in the assay on HCT116 MTAP+/+.
On to `CNC(=O)c1cn(CC2CC2)c2c(-c3ccc(OC(F)F)cc3)c(=O)n(-c3ccc4nn(C)cc4c3)nc12` [Example 169, 5-(cyclopropylmethyl)-4-(4-(difluoromethoxy)phenyl)-N-methyl-2-(2-methyl-2H-indazol-5-yl)-3-oxo-3,5-dihydro-2H-pyrrolo[3,2-c]pyridazine-7-carboxamide], for which the IC50 at MAT2A homodimer is below 100 nM; in assay [1], below 100 nM; with HCT116 MTAP−/− it was below 100 nM; in the assay on HCT116 MTAP+/+ it was 100 to 1000 nM.
In the case of `Cn1cc2cc(-n3nc4c(C(N)=O)cn(CC5CC5)c4c(-c4ccc(Cl)cc4)c3=O)ccc2n1` [Example 170, 4-(4-chlorophenyl)-5-(cyclopropylmethyl)-2-(2-methyl-2H-indazol-5-yl)-3-oxo-3,5-dihydro-2H-pyrrolo[3,2-c]pyridazine-7-carboxamide], the IC50 at MAT2A homodimer was below 100 nM; in assay [1], below 100 nM; with HCT116 MTAP−/−, below 100 nM; in the assay with HCT116 MTAP+/+, above 1000 nM.
For `CNC(=O)c1cn(CC2CC2)c2c(-c3ccc(Cl)cc3)c(=O)n(-c3ccc4nn(C)cc4c3)nc12` [Example 171, 4-(4-chlorophenyl)-5-(cyclopropylmethyl)-N-methyl-2-(2-methyl-2H-indazol-5-yl)-3-oxo-3,5-dihydro-2H-pyrrolo[3,2-c]pyridazine-7-carboxamide], the IC50 (at MAT2A homodimer; in assay [1]; in the assay with HCT116 MTAP−/−; with HCT116 MTAP+/+) was below 100 nM in each case.
